Measurements taken from ChEMBL document CHEMBL1141189, “Preparation and biological evaluation of indole, benzimidazole, and thienopyrrole piperazine carboxamides: potent human histamine h(4) antagonists” (J Med Chem, 2005).

Experiments:
[1] = In vitro half life in rat S9 fraction; type: ADME, Liver
Rattus norvegicus [2] = assay: Maximum concentration in rat administered with 10 mg/kg, po; type: ADME, organism-based; set-up: dose 10 mg/kg, route oral; conditions: in vivo
[3] = In vitro half life in human liver microsomes; type: ADME, Microsome
Histamine H4 receptor [4] = biological target: T1, Histamine H4 receptor (Homo sapiens, UniProt Q9H3N8); assay: Antagonistic activity at human histamine H4 receptor in SK-N-MC cells by inhibition of forskolin-stimulated cAMP-mediated reporter gene activity; type: functional, cell-based; conditions: for Kb: read-out: pA2 (converted)
T1 sequence (Q9H3N8 whole entry): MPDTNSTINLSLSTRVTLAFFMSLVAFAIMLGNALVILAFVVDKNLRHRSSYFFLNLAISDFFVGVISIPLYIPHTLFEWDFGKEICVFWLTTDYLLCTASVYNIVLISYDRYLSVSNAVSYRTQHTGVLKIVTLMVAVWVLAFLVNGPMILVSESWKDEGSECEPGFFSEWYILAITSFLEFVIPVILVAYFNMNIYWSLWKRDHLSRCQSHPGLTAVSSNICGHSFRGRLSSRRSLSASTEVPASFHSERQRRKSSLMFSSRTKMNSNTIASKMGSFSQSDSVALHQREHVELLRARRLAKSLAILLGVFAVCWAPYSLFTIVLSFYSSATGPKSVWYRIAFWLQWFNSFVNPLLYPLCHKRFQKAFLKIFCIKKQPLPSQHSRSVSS

[5] = Half life in rat administered with 2 mg/kg, iv; type: ADME, organism-based; set-up: dose 2 mg/kg, route intravenous; conditions: in vivo
Histamine H4 receptor [6] = biological target: T1, Histamine H4 receptor; assay: Displacement of [3H]histamine from recombinant human histamine H4 receptor in SK-N-MC cells; type: cell-based
[7] = Oral bioavailability in rat administered with 10 mg/kg, po; type: ADME, organism-based; conditions: in vivo
[8] = In vitro half life in human S9 fraction; type: ADME, Liver
[9] = Half life in rat administered with 10 mg/kg, po; type: ADME, organism-based; set-up: dose 10 mg/kg, route oral; conditions: in vivo
[10] = In vitro half life in rat liver microsomes; type: ADME, Microsome
Rattus norvegicus [11] = assay: Area under curve in rat administered with 10 mg/kg, po; type: ADME, organism-based; set-up: dose 10 mg/kg, route oral; conditions: in vivo
Histamine H3 receptor = Histamine H3 receptor (Homo sapiens, UniProt Q9Y5N1); assay: Binding affinity to histamine H3 receptor
Histamine H3 receptor, sequence (Q9Y5N1 whole entry): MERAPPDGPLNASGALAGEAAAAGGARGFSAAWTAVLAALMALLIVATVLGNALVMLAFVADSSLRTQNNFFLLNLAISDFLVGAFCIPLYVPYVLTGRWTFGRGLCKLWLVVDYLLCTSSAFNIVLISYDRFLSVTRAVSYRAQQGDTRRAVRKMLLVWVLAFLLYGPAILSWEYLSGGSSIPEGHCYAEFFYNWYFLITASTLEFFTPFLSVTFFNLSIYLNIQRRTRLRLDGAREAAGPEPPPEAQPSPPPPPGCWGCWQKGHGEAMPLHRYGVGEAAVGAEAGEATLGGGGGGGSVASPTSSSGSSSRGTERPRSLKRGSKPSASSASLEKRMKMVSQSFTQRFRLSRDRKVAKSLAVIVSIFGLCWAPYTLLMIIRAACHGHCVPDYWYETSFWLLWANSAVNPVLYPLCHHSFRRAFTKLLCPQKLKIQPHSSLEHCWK

| Structure (SMILES) | Kb (Histamine H4 receptor [4]) | Ki (Histamine H4 receptor [6]) | also measured |
| --- | --- | --- | --- |
| CN1CCN(C(=O)c2cc3cc(Cl)sc3[nH]2)CC1 | 12.6 nM | – | half-life [1]: 0.783 h; Cmax (Rattus norvegicus [2]): < 100 nM; half-life [3]: 0.883 h; half-life [5]: 6 min |
| CN1CCN(C(=O)c2cc3cc(Cl)cc(Cl)c3[nH]2)CC1 | 10 nM | – | – |
| CN1CCN(C(=O)c2cc3cc(F)ccc3[nH]2)CC1 | 20 nM | – | – |
| CN1CCN(C(=O)c2nc3c(F)c(F)ccc3[nH]2)CC1 | 79.4 nM | 49 nM | – |
| Cc1cccc2[nH]c(C(=O)N3CCN(C)CC3)nc12 | 25.1 nM | 30 nM | – |
| CN1CCN(C(=O)c2cc3cc(Cl)ccc3[nH]2)CC1 [JNJ-7777120] | – | – | bioavailability [7]: 22%; half-life [8]: 1.67 h; half-life [9]: 2.3 h; half-life [1]: 1.07 h; Cmax (Rattus norvegicus [2]): 1800 nM; half-life [3]: 0.467 h; half-life [10]: 0.075 h; AUC (Rattus norvegicus [11]): 7 uM.h/L |
| CN1CCN(C(=O)c2cc3cc(C(F)(F)F)ccc3[nH]2)CC1 | – | 412 nM | – |
| Cc1csc2cc(C(=O)N3CCN(C)CC3)[nH]c12 | 31.6 nM | – | – |
| CN1CCN(C(=O)c2cc3c(Br)cccc3[nH]2)CC1 | 158 nM | – | – |
| Cc1cccc2cc(C(=O)N3CCN(C)CC3)[nH]c12 | – | – | pA2 (Histamine H4 receptor [4]): 7.9 |
| CN1CCN(C(=O)c2nc3cc(C(F)(F)F)ccc3[nH]2)CC1 | – | 427 nM | – |
| Cc1ccc2[nH]c(C(=O)N3CCN(C)CC3)cc2c1 | 20 nM | – | – |
| CN1CCN(C(=O)c2cc3cc(F)cc(F)c3[nH]2)CC1 | 20 nM | – | – |
| Cc1cc(Cl)c2nc(C(=O)N3CCN(C)CC3)[nH]c2c1 | 126 nM | 23 nM | – |
| Cc1cc(Cl)c2[nH]c(C(=O)N3CCN(C)CC3)cc2c1 | 50.1 nM | 33 nM | – |
| O=C(c1cc2ccccc2[nH]1)N1CCNCC1 | – | – | Ki (Histamine H3 receptor): 9000 nM |
| CN1CCN(C(=O)c2nc3cc(Cl)cc(Cl)c3[nH]2)CC1 | – | 136 nM | – |

| Structure (SMILES) | Kb (Histamine H4 receptor [4]) | Ki (Histamine H4 receptor [6]) | also measured |
| --- | --- | --- | --- |
| CN1CCN(C(=O)c2nc3cc(Cl)ccc3[nH]2)CC1 | 20 nM | 26 nM | bioavailability [7]: 27%; half-life [8]: 1.67 h; half-life [9]: 1 h; Ki (Histamine H3 receptor): 14100 nM; half-life [1]: 1.47 h; Cmax (Rattus norvegicus [2]): 1800 nM; half-life [3]: 1.67 h; half-life [10]: 0.2 h; AUC (Rattus norvegicus [11]): 2.1 uM.h/L |
| CN1CCN(C(=O)c2nc3ccccc3[nH]2)CC1 | 63.1 nM | 35 nM | – |
| Cc1cc(C)c2[nH]c(C(=O)N3CCN(C)CC3)cc2c1 | 31.6 nM | – | – |
| CN1CCN(C(=O)c2cc3sccc3[nH]2)CC1 | – | 90 nM | – |
| CN1CCN(C(=O)c2nc3cc(F)ccc3[nH]2)CC1 | 50.1 nM | 19 nM | – |
| CN1CCN(C(=O)c2cc3sc(Cl)cc3[nH]2)CC1 | 50.1 nM | – | – |
| CN1CCN(C(=O)c2cc3cc(Br)ccc3[nH]2)CC1 | 15.8 nM | – | – |
| CN1CCN(C(=O)c2cc3cc(O)ccc3[nH]2)CC1 | 79.4 nM | – | – |
| Cc1c(F)ccc2[nH]c(C(=O)N3CCN(C)CC3)nc12 | 15.8 nM | 7 nM | – |
| CN1CCN(C(=O)c2cc3cccc(N)c3[nH]2)CC1 | 7.94 nM | – | – |
| CN1CCN(C(=O)c2cc3c(Cl)c(Cl)ccc3[nH]2)CC1 | 6.31 nM | – | – |
| CN1CCN(C(=O)c2cc3cccc(Cl)c3[nH]2)CC1 | 79.4 nM | – | – |
| Cc1c(Cl)sc2cc(C(=O)N3CCN(C)CC3)[nH]c12 | 20 nM | – | – |
| CN1CCN(C(=O)c2nc3c(N)cccc3[nH]2)CC1 | – | 244 nM | – |
| CN1CCN(C(=O)c2cc3ccsc3[nH]2)CC1 | – | 90 nM | – |
| CN1CCN(C(=O)c2cc3cccc(Br)c3[nH]2)CC1 | 126 nM | – | – |
| Cc1c(F)ccc2[nH]c(C(=O)N3CCN(C)CC3)cc12 | 20 nM | 27 nM | – |
